Among the data in US6828315B1, “1-Amino triazoloc4,3-a! quinazoline-5-ones and/or -5-thiones inhibiting phosphodiesterase IV” (Warner-Lambert LLC, priority 1999, dated 2004) are melting point values, retold here.

Each structure is given as a SMILES string.

By melting point is commonly meant the temperature, or range, at which the solid turns liquid. Regarding `O=c1c2cc(Br)ccc2n2c(N3CCSCC3)nnc2n1CC=Cc1cccnc1` [Compound 77, 7-Bromo-4(3-pyridin-3-yl-allyl)-1-thiomorpholin-4-yl-4H-[1,2,4]triazolo[4,3-a]quinazolin-5-one], the melting point came out at 177 °C. With `CN(C)c1nnc2n(Cc3ccc(CC(=O)O)cc3)c(=O)c3cc(Br)ccc3n12` [Compound 82, [4-(7-Bromo-1-dimethylamino-5-oxo-5H-[1,2,4]triazolo[4,3-a]quinazolin-4-ylmethyl)-phenyl]-acetic acid], the melting point came out at 246 °C. Take `CN(C)c1nnc2n(Cc3cccnc3)c(=O)c3cc(Br)ccc3n12` [Compound 84, 7-Bromo-1-dimethylamino-4-pyridin-3-ylmethyl-4H-[1,2,4]triazolo[4,3-a]quinazolin-5-one]: the melting point was determined as 142 °C. Regarding `CN(C)c1nnc2n(CC=Cc3ccccc3)c(=O)c3cc(Br)ccc3n12` [Compound 86, 7-Bromo-1-dimethylamino-4-(3-phenyl-allyl)-4H-[1,2,4]triazolo[4,3-a]quinazolin-5-one], the melting point came to 167 °C.

Regarding `CN(C)c1nnc2n(CC=Cc3ccncc3)c(=O)c3cc(Br)ccc3n12` [Compound 87, 7-Bromo-1-dimethylamino-4-(3-pyridin-4-yl-allyl)-4H-[1,2,4]triazolo[4,3-a]quinazolin-5-one], the melting point was determined as 115 °C. On to `C#CCn1c(=O)c2cc(Br)ccc2n2c(N(C)C)nnc12` [Compound 88, 7-Bromo-1-dimethylamino-4-prop-2-ynyl-4H-[1,2,4]triazolo[4,3-a]quinazolin-5-one], for which the melting point worked out at 234 °C. `COC(=O)C(c1ccccc1)n1c(=O)c2cc(Br)ccc2n2c(N(C)C)nnc12` (stereo not drawn) [Compound 90, (7-Bromo-1-dimethylamino-5-oxo-5H-[1,2,4]triazolo[4,3-a]quinazolin-4-yl)-phenyl-acetic acid methyl ester] registered a melting point of 243 °C. In the case of `COC(=O)c1ccc(Cn2c(=O)c3cc(C)ccc3n3c(N4CCCC4)nnc23)cc1` [Compound 95, 4(7-Methyl-5-oxo-1-pyrrolidin-1-yl-5H-[1,2,4]triazolo[4,3-a]quinazolin-4-ylmethyl)-benzoic acid methyl ester], the melting point worked out at 230 °C. As for `Cc1ccc2c(c1)c(=O)n(Cc1cccnc1)c1nnc(N3CCCC3)n21` [Compound 97, 7-Methyl-4-pyridin-3-ylmethyl-1-pyrrolidin-1-yl-4H-[1,2,4)triazolo[4,3-a]quinazolin-5-one], the melting point was 139 °C. Regarding `Cc1ccc2c(c1)c(=O)n(CC=Cc1cccnc1)c1nnc(N3CCSCC3)n21` [Compound 100, 7-Methyl-4-(3-pyridin-3-yl-allyl)-1-thiomorpholin-4-yl-4H-[1,2,4]triazolo[4,3-a]quinazolin-5-one], the melting point was determined as 230 °C. Then `Cc1ccc2c(c1)c(=O)n(CC=Cc1ccncc1)c1nnc(N(C)C)n21` [Compound 105, 1-Dimethylamino-7-methyl-4-(3-pyridin-4yl-allyl)-4H-[1,2,4]triazolo[4,3-a]quinazolin-5-one], with 119 °C; and `CN(C)c1nnc2n(Cc3ccc(C#N)cc3)c(=O)c3cc(C#N)ccc3n12` [Compound 107, 4-(4-Cyano-benzyl)-1-dimethylamino-5-oxo-4,5-dihydro-[1,2,4]triazolo[4,3-a]quinazoline-7-carbonitrile], with 147 to 149 °C; and `O=c1c2cc(O)ccc2n2c(N3CCCC3)nnc2n1C/C=C/c1ccccc1` [Compound 108, 7-Hydroxy-4-((E)-3-phenyl-allyl)-1-pyrrolidin-1-yl-4H-[1,2,4]triazolo[4,3-a]quinazolin-5-one], with 295 °C (dec.).

Take `O=c1nc2n(CC=Cc3ccccc3)nc(N3CCCCCC3)n2c2ccccc12` [Compound 109, 1-(azepan-1-yl)-3-(3-phenylallyl)-3H-[1,2,4]triazolo[4,3-a]-quinazolin-5-one]: the melting point was determined as 176 °C. The compound `C=CCn1nc(N2CCCCCC2)n2c3ccc(Cl)cc3c(=O)nc12` [Compound 110, 3-Allyl-1-azepan-1-yl-7-chloro-3H-[1,2,4]triazolo[4,3-a]quinazolin-5-one] came in with a melting point of 173 °C. As to `O=c1nc2n(Cc3ccccc3)nc(N3CCCCCC3)n2c2ccc(Cl)cc12` [Compound 111, 1-(azepan-1-yl)-7-chloro-3-benzyl-3H-[1,2,4]triazolo[4,3-a]-quinazolin-5-one], the melting point was 148 °C. For the compound `Cc1ccc(Cn2nc(N3CCCCCC3)n3c4ccc(Cl)cc4c(=O)nc23)cc1` [Compound 112, 1-Azepan-1-yl-7-chloro-3-(4-methyl-benzyl)-3H-[1,2,4]triazolo[4,3-a]quinazolin-5-one], the melting point was found to be 182 °C. As for `O=c1nc2n(Cc3ccccc3Cl)nc(N3CCCCCC3)n2c2ccc(Cl)cc12` [Compound 113, 1-(azepan-1-yl)-7-chloro-3-(2-chlorobenzyl)-3H-[1,2,4]triazolo[4,3-a]quinazolin-5-one], the melting point is 228 °C. Then `O=c1nc2n(Cc3cccc(Cl)c3)nc(N3CCCCCC3)n2c2ccc(Cl)cc12` [Compound 114, 1-(azepan-1-yl)-7-chloro-3-(3-chlorobenzyl)-3H-[1,2,4]triazolo[4,3-a]quinazolin-5one], with 166 °C; and `O=c1nc2n(Cc3ccc(Cl)cc3)nc(N3CCCCCC3)n2c2ccc(Cl)cc12` [Compound 115, 1-(azepan-1-yl)-7-chloro-3-(4-chlorobenzyl)-3H-[1,2,4]triazolo[4,3-a]quinazolin-5-one], with 245 °C. `O=c1nc2n(Cc3ccc(Br)cc3)nc(N3CCCCCC3)n2c2ccc(Cl)cc12` [Compound 116, 1-(azepan-1-yl)-7-chloro-3-(4-bromobenzyl)-3H-[1,2,4]triazolo(4,3-a]quinazolin-5-one] had a melting point of 244 °C.

For `O=c1nc2n(Cc3ccc(F)cc3)nc(N3CCCCCC3)n2c2ccc(Cl)cc12` [Compound 117, 1-(azepan-1-yl)-7-chloro-3-(4-fluorobenzyl)-3H-[1,2,4)triazolo[4,3-a]quinazolin-5-one], the melting point stood at 224 °C. Turning to `O=c1nc2n(Cc3ccc(C(F)(F)F)cc3)nc(N3CCCCCC3)n2c2ccc(Cl)cc12` [Compound 118, 1-(azepan-1-yl)-7-chloro-3-(4-(trifluoromethyl)benzyl)-3H-[1,2,4]triazolo[4,3-a]quinazolin-5-one], the melting point turned out to be 232 °C. In turn, `N#Cc1ccc(Cn2nc(N3CCCCCC3)n3c4ccc(Cl)cc4c(=O)nc23)cc1` [Compound 119, 1-(azepan-1-yl)-7-chloro-3-(4-cyanobenzyl)-3H-[1,2,4]triazolo[4,3-a]quinazolin-5-one] yielded a melting point of more than 260 °C. In turn, `COc1ccccc1Cn1nc(N2CCCCCC2)n2c3ccc(Cl)cc3c(=O)nc12` [Compound 120, 1-(azepan-1-yl)-7-chloro-3-(2-methoxybenzyl)-3H-[1,2,4]triazolo[4,3-a]quinazolin-5-one] yielded a melting point of 184 °C. As to `COc1cccc(Cn2nc(N3CCCCCC3)n3c4ccc(Cl)cc4c(=O)nc23)c1` [Compound 121, 1-(azepan-1-yl)-7-chloro-3-(3-methoxybenzyl)-3H-[1,2,4]triazolo[4,3-a]quinazolin-5-one], the melting point was found to be 163 °C. Consider `COc1ccc(Cn2nc(N3CCCCCC3)n3c4ccc(Cl)cc4c(=O)nc23)cc1` [Compound 122, 1-(azepan-1-yl)-7-chloro-3-(4-methoxybenzyl)-3H-[1,2,4]triazolo[4,3-a]quinazolin-5-one], for which the melting point lay in the range of 164 to 165 °C. As to `O=c1nc2n(Cc3ccc(Cl)c(Cl)c3)nc(N3CCCCCC3)n2c2ccc(Cl)cc12` [Compound 123, 1-(azepan-1-yl)-7-chloro-3-(3,4-dichlorobenzyl)-3H-[1,2,4]triazolo[4,3-a]quinazolin-5-one], the melting point is 212 °C.

Compound `COc1ccc(Cn2nc(N3CCCCCC3)n3c4ccc(Cl)cc4c(=O)nc23)cc1OC` [Compound 124, 1-(azepan-1-yl)-7-chloro-3-(3,4-dimethoxybenzyl)-3H-[1,2,4]triazolo[4,3-a]quinazolin-5-one] had a melting point of 153 °C. `O=c1nc2n(Cc3ccccn3)nc(N3CCCCCC3)n2c2ccc(Cl)cc12` [Compound 125, 1-(azepan-1-yl)-7-chloro-3-(2-pyridylmethyl)-3H-[1,2,4]triazolo[4,3-a]quinazolin-5-one] registered a melting point of 153 °C. With `O=c1nc2n(Cc3cccnc3)nc(N3CCCCCC3)n2c2ccc(Cl)cc12` [Compound 126, 1-(azepan-1-yl)-7-chloro-3-(3-pyridylmethyl)-3H-[1,2,4]triazolo[4,3-a]quinazolin-5-one], the melting point was 184 °C. `COc1ccc(CCn2nc(N3CCCCCC3)n3c4ccc(Cl)cc4c(=O)nc23)cc1` [Compound 128, 1-(azepan-1-yl)-7-chloro-3-[2-(4-methoxyphenyl)ethyl)-3H-[1,2,4]triazolo[4,3-a]quinazolin-5-one] came in with a melting point of 196 °C. Then `O=c1nc2n(CCCc3ccccc3)nc(N3CCCCCC3)n2c2ccc(Cl)cc12` [Compound 129, 1-(azepan-1-yl)-7-chloro-3-(3-phenylpropyl)-3H-[1,2,4]triazolo[4,3-a]quinazolin-5-one], with 130 °C; and `O=C(Cn1nc(N2CCCCCC2)n2c3ccc(Cl)cc3c(=O)nc12)c1ccccc1` [Compound 130, 1-Azepan-1-yl-7-chloro-3-(2-oxo-2-phenyl-ethyl)3H-[1,2,4]triazolo[4,3-a]quinazolin-5-one], with 230 to 232 °C; and `COc1ccc(C(=O)Cn2nc(N3CCCCCC3)n3c4ccc(Cl)cc4c(=O)nc23)cc1` [Compound 131, 1-(azepan-1-yl)-7-chloro-3-(2-(4-methoxyphenyl)-2-oxoethyl]-3H-[1,2,4]triazolo[4,3-a]quinazolin-5-one], with 238 °C. The compound `O=C(Cn1nc(N2CCCCCC2)n2c3ccc(Cl)cc3c(=O)nc12)c1ccc(Cl)cc1` [Compound 132, 1-(azepan-1-yl)-7-chloro-3-[2-(4-chlorophenyl)-2-oxoethyl)-3H-[1,2,4]triazolo[4,3-a]quinazolin-5-one] returned a melting point of 238 °C.
